Source: patent US20150025012A1, “METHODS AND COMPOSITIONS FOR IDENTIFICATION, ASSESSMENT AND TREATMENT OF CANCERS ASSOCIATED WITH HEDGEHOG SIGNALING” (Infinity Pharmaceuticals, Inc., priority 2010, published 2015)
Entries after “also recorded” stand apart in the source; their conditions may differ.

Experiments:
Bx-PC3 tumors = assay: Growth of Bx-PC3 tumors in mice; format: in vivo; settings: single agents and combination
Text: Bevacizumab, a monoclonal antibody, exerts its activity by neutralizing VEGF, a factor important of the proliferation and survival of endothelial cells. […] In the same study, the relative effect of these agents was explored by measuring the mRNA expression of PECAM-1, a marker of endothelial cells and RGS5, a marker of pericytes. […] The role of the vasculature and its supporting pericyte population in the mechanism of action of IPI-926 continues to be explored.
For in vivo studies, tumors were grown in male NCR-nu/nu mice by subcutaneous injection of 5×10^6 cells. Tumor growth was monitored using calipers. When tumors reached an approximate size of 200 mm^3, tumor bearing animals were randomized into treatment arms and administered agents or vehicles as described.

Gli1 mRNA = Gli1 mRNA expression in tumor stroma (RT-PCR); format: in vivo, murine; settings: animals receiving IPI-926 (40 mg/kg) compared to vehicle
Text: In each of these cases, the action of IPI-926 coincides with downregulation of mRNA for Gli1, an important molecule in the Hedgehog signaling pathway, in the tumor stroma of experimental animals receiving IPI-926 (FIG. 12A). The downregulation of Gli1 mRNA can be used as a functional readout for inhibition of Hedgehog signaling. Moreover, in these models, it appears to be the cancer cells that express the ligand of the Hedgehog signaling pathway (FIG. 12B). Thus, without being bound by theory, Applicants believe that the tumor cells express Hedgehog ligand which signals to a tumor associated stromal cell.
RNA for analysis was isolated from cell pellets or tumor tissue using the Ambion RNA 4-PCR isolation kit according to the manufacturer's guidance. Reverse transcription-PCR was performed for human GAPDH, Gli l and SHh and murine GAPDH, Gli1, PECAM and RGS5 using an ABI-7300 system with ABI primer/probes. Relative quantification of the expression data was obtained using the ΔΔCT method as described by Applied Biosystems.

[1] = system: Basal Cell Carcinoma (BCC) lesion; assay: BCC lesion in a patient before and after treatment; format: in vivo, human; settings: six months after treatment
Gli1 = assay: Nuclear Gli1 immunohistochemical staining of BCC lesion biopsies pre- and post-treatment; format: in vivo, human
Procedure: For immunohistochemical (IHC) detection, tissue samples can be fixed in 10% neutral buffered formalin at room temperature before processing for paraffin embedding. The length of fixation depends on the size of the tissue, for example, overnight but not more than 22-24 hours for large tissues; and no more than 2 hours for small core or needle biopsies. The fixed tissues are sectioned to 7 microns […] and mounted on Superfrost Microscope™ slides (Fisher Scientific).
Prior to incubation with anti-Gli1 antibody, antigen retrieval can be performed to break the protein cross-links formed by formalin fixation and thereby reveal hidden antigens. Antigen retrieval buffers with different buffer compositions and pH are commercially available, for example, CC1 (Tris/EDTA, pH 8.0; Ventana, Cat. No. 950-124); CC2 (citrate, pH 6.0; Ventana, Cat. No. 950-123); citrate buffer (pH 6.0; Invitrogen, Cat. No. 00-5000); Target Retrieval Solution (citrate, pH 6.1; Dako, Cat. No. S170084); Target Retrieval Solution (Tris/EDTA, pH 9.0; Dako, Cat. No. S236884); Diva Decloaker (citrate, pH 6.2; Biocare, Cat. No. DV2004 mM); and EDTA Decloaker (EDTA based, pH 8.5; Biocare, Cat. No. CB917 L).
Anti-Gli1 antibodies that can be used to detect nuclear Gli1 protein in tumor samples are commercially available. Exemplary anti-Gli1 antibodies include, e.g., rabbit polyclonal and monoclonal antibody from Cell Signaling Technology (Cat. Nos. 2553 and 3538, respectively); rabbit polyclonal antibody (H-300) from Santa Cruz Biotechnology (Cat. No. se-20687, described in Chung et al., J. Clin. Oncol. 2011; 29(10):1326-34); rabbit polyclonal antibody from Abcam (Cat. No. ab92611); rabbit polyclonal antibody from Abnova (Cat. No. PAB10214); rabbit polyclonal antibody from GenWay Biotech (Cat. No. 18-732-292074); rabbit polyclonal antibody from LifeSpan BioSciences (Cat. No. LS-C66529-50); rabbit polyclonal antibody from Novus Biologicals (Cat. No. NBP1-03294); mouse polyclonal antibody from ProSci (Cat. No. 49-519); goat polyclonal antibody from R&D Systems (Cat. No. AF3455); and rabbit polyclonal antibody from United States Biological (Cat. No. G2035-51A).
Detection of tumor nuclear Gli1 staining in basal cell carcinomas (BCC) was performed using the protocols described in Example 9. FIGS. 23C and 23D show nuclear staining of Gli1 in biopsy samples of a BCC lesion pre- and 22-day post-treatment of IPI-926.
The definition of H-score is known in the art, e.g., as described in Detre, S. et al. (1995) J. Clin. Pathol. […] The intensity in the malignant cell nuclei can be scored as 0, 1, 2, or 3. […] The total number of cells in each field and the number of cells stained at each intensity are counted. The average percentage positive can be calculated and analyzed as described in Detre, S. et al. (1995) supra.

tumor stroma = assay: Uptake of imaging marker Gd-DTPA (DCE-MRI) and fluorescent drug and protein in tumors; format: in vivo; settings: IPI-926 treated tumors
[2] = post treatment versus pre treatment BCC sample

CC1=C2C[C@H]3[C@@H](CC[C@@H]4C[C@H](NS(C)(=O)=O)CC[C@@]43C)[C@@H]2CC[C@@]2(C1)O[C@@H]1C[C@H](C)CN[C@H]1[C@H]2C [IPI-926]
activity on the growth of Bx-PC3 tumors (Bx-PC3 tumors): approximately the same single agent activity | Gli1 mRNA expression in tumor stroma (Gli1 mRNA): inhibition; also recorded: suppression; also recorded: downregulation | size and morphology of BCC lesion [1]: dramatic reduction | overall reduction of Gli1 protein staining (Gli1; [2]): 57% | reduction in nuclear Gli1 stain (Gli1; [2]): 60% | nuclei stained positive for Gli1 (Gli1; post-treatment (27% before treatment)): 16% | H-score of Gli1 staining (Gli1; post-treatment (100 before treatment)): 57 | uptake of imaging marker Gd-DTPA and fluorescent drug and protein (doxorubicin, lectin) (tumor stroma): increased uptake
